Measurements as given in US10717730B1, “Dihydroisoquinoline compound” (SUZHOU ARK BIOPHARMACEUTICAL CO., LTD., priority 2017, dated 2020).

System: HBsAg
Assay: HBsAg assay (secreted HBsAg by CLIA in HepG2.2.15 cells)
Assay type: cell-based, hepatitis B virus (HBV)
Conditions: Hepatitis B virus, HepG2.2.15, 96 h
Description: HepG2.2.15 cells (Sells et al, Proc Natl Acad Sci USA. 1987 February; 84(4):1005-9), a constitutively HBV-expressing cell line, were cultured in DMEM medium supplemented with 10% FBS and 400 μg/mL G418, and maintained in 5% CO2 at 37° C.
HepG2.2.15 cells were seeded into 96-well plates at 3×10^4 cells/well. The next day, the cells were treated with a five-fold serial dilution series of the compound in DMSO. The final DMSO concentration in all wells was 0.5% and 0.5% DMSO was used as no drug control. After four days of incubation with compounds, the supernatants were harvested and measured for HBsAg concentration
The HBsAg chemiluminescence immunoassay (CLIA) kit was used to measure the levels of secreted HBsAg. Specifically, 50 μL of culture supernatant was transferred to the CLIA assay plate and 50 μL of enzyme conjugate reagent was added into each well. The plates were sealed and incubated for 1 hour at room temperature. The supernatant-enzyme-mixture was discarded and wells were washed for 6 times. The residual liquid was removed by plating on tissue paper. 25 μL of substrate A and B were added into each well. Luminance was measured using a spectrometer (Tecan Infinite® F200) after 10 minutes incubation. IC50 value was extrapolated based the dose-response curves generated from the data.

SMILES	IC50 [nM]
COc1cc2c(cc1-c1ccc(C(F)(F)F)nc1)CC(C(C)(C)C)n1cc(C(=O)O)c(=O)cc1-2 (stereo not drawn) [Example 41, 6-(tert-butyl)-10-methoxy-2-oxo-9-(6-trifluoromethylpyridin-3-yl)-6,7-dihydro-2H-pyrido[2,1-a]isoquinoline-3-carboxylic acid]	2
COCCOc1ccc(-c2cc3c(cc2OC)-c2cc(=O)c(C(=O)O)cn2C(C(C)(C)C)C3)cn1 (stereo not drawn) [Example 42, 6-(tert-butyl)-10-methoxy-9-(6-(2-methoxyethoxy)pyridin-3-yl)-2-oxo-6,7-dihydro-2H-pyrido[2,1-a]isoquinoline-3-carboxylic acid]	2
COc1cc2c(cc1-c1ccc(N(C)C)nc1)CC(C(C)(C)C)n1cc(C(=O)O)c(=O)cc1-2 (stereo not drawn) [Example 43, 6-(tert-butyl)-9-(6-(dimethylamino)pyridin-3-yl)-10-methoxy-2-oxo-6,7-dihydro-2H-pyrido[2,1-a]isoquinoline-3-carboxylic acid]	1
COc1cc2c(cc1-c1ccc(N3CCCC3)nc1)CC(C(C)(C)C)n1cc(C(=O)O)c(=O)cc1-2 (stereo not drawn) [Example 44, 6-(tert-butyl)-10-methoxy-2-oxo-9-(6-(pyrrolidin-1-yl)pyridin-3-yl)-6,7-dihydro-2H-pyrido[2,1-a]isoquinoline-3-carboxylic acid]	10
COc1cc2c(cc1-c1ccc(N3CCNCC3)nc1)CC(C(C)(C)C)n1cc(C(=O)O)c(=O)cc1-2 (stereo not drawn) [Example 45, 6-(tert-butyl)-10-methoxy-2-oxo-9-(6-(piperazin-1-yl)pyridin-3-yl)-6,7-dihydro-2H-pyrido[2,1-a]isoquinoline-3-carboxylic acid]	14
COc1cc2c(cc1-c1ccc(N3CCN(C(C)=O)CC3)nc1)CC(C(C)(C)C)n1cc(C(=O)O)c(=O)cc1-2 (stereo not drawn) [Example 46, 9-(6-(4-acetylpiperazin-1-yl)pyridin-3-yl)-6-(tert-butyl)-10-methoxy-2-oxo-6,7-dihydro-2H-pyrido[2,1-a]isoquinoline-3-carboxylic acid]	3
COc1cc2c(cc1-c1ccc(N3CCN(C)CC3)nc1)CC(C(C)(C)C)n1cc(C(=O)O)c(=O)cc1-2 (stereo not drawn) [Example 47, 6-(tert-butyl)-10-methoxy-9-(6-(4-methylpiperazin-1-yl)pyridin-3-yl)-2-oxo-6,7-dihydro-2H-pyrido[2,1-a]isoquinoline-3-carboxylic acid]	2
COc1cc2c(cc1-c1cnc(F)cc1C)CC(C(C)(C)C)n1cc(C(=O)O)c(=O)cc1-2 (stereo not drawn) [Example 48, 6-(tert-butyl)-9-(6-fluoro-4-methylpyridin-3-yl)-10-methoxy-2-oxo-6,7-dihydro-2H-pyrido[2,1-a]isoquinoline-3-carboxylic acid]	68
COc1cc2c(cc1-c1ccc(F)nc1)CC(C(C)(C)C)n1cc(C(=O)O)c(=O)cc1-2 (stereo not drawn) [Example 49, 6-(tert-butyl)-9-(6-fluoropyridin-3-yl)-10-methoxy-2-oxo-6,7-dihydro-2H-pyrido[2,1-a]isoquinoline-3-carboxylic acid]	14
COc1cc2c(cc1-c1ccc(NCC3CC3)nc1)CC(C(C)(C)C)n1cc(C(=O)O)c(=O)cc1-2 (stereo not drawn) [Example 52, 6-(tert-butyl)-9-(6-(cyclopropylmethylamino)pyridin-3-yl)-10-methoxy-2-oxo-6,7-dihydro-2H-pyrido[2,1-a]isoquinoline-3-carboxylic acid]	12
COc1cc2c(cc1-c1cnc(N3CCC3)cc1C)CC(C(C)(C)C)n1cc(C(=O)O)c(=O)cc1-2 (stereo not drawn) [Example 53, 9-(6-(azetidin-1-yl)-4-methylpyridin-3-yl)-6-(tert-butyl)-10-methoxy-2-oxo-6,7-dihydro-2H-pyrido[2,1-a]isoquinoline-3-carboxylic acid]	1400
COc1cc2c(cc1-c1ccc(N)nc1)CC(C(C)(C)C)n1cc(C(=O)O)c(=O)cc1-2 (stereo not drawn) [Example 54, 9-(6-aminopyridin-3-yl)-6-(tert-butyl)-10-methoxy-2-oxo-6,7-dihydro-2H-pyrido[2,1-a]isoquinoline-3-carboxylic acid]	1
